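Test compounds were applied to cells in 96-well plates for 48 hours at 5 doses. GI50 = concentration required for 50% inhibition of growth. The concentration for full growth arrest is given as TGI.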
Experiments:
Test in all cases: NCI anticancer screen, dose series, 48 h
[1] = tested on: A498 renal
[2] = tested on: HCC-2998 colon
[3] = tested on: OVCAR-4 ovarian
[4] = tested on: DU-145 prostate
[5] = tested on: SN12C renal
[6] = tested on: PC-3 prostate
[7] = tested on: RPMI-8226 leukemia
[8] = tested on: SNB-19 CNS
[9] = tested on: SK-MEL-28 melanoma
[10] = tested on: NCI-H23 lung

SMILES | GI50 [1] [µM] | TGI [1] [µM] | GI50 [2] [µM] | TGI [2] [µM] | GI50 [3] [µM] | TGI [3] [µM] | GI50 [4] [µM] | TGI [4] [µM] | GI50 [5] [µM] | TGI [5] [µM] | GI50 [6] [µM] | TGI [6] [µM] | GI50 [7] [µM] | TGI [7] [µM] | GI50 [8] [µM] | TGI [8] [µM] | GI50 [9] [µM] | TGI [9] [µM] | GI50 [10] [µM] | TGI [10] [µM]
C/C(=C\c1ccn(-c2ccccc2N)n1)[C@@H]1C[C@@H]2O[C@]2(C)CCC[C@H](C)[C@H](O)[C@@H](C)C(=O)C(C)(C)[C@@H](O)CC(=O)O1 | 0.0372 | 0.669 | 0.0467 | > 18.3 | 0.392 | > 50 | 0.0564 | 0.402 | 0.145 | > 50 | 0.0371 | > 50 | 0.0188 | > 24.1 | 0.184 | > 50 | 1.07 | > 50 | 0.0663 | > 50
CCCCCCCCCCCC1=NC(C)(C)CN1C(C)(C)CO | 5.76 | 20.8 | 1.75 | 3.24 | 4.61 | 15.8 | 3.12 | 15.3 | 4.31 | 17.5 | 3.11 | 12.8 | 2.49 | 5.83 | 5.15 | 20.2 | 1.83 | 3.41 | 2.11 | 4.67
CN(C)c1ccc(Nc2c3ccccc3nc3ccccc23)cc1 | 0.353 | 4.45 | 1.41 | 3.93 | 1.26 | 5.44 | 1.05 | 2.94 | 1.03 | 6.76 | 1.34 | 5.41 | 0.984 | 3.9 | 1.63 | 9.32 | 1.36 | 2.84 | 1.1 | 2.92
COC(=O)c1cc(-c2ccccc2)[nH]c1N/N=C/c1c(Cl)cccc1Cl | 0.198 | 0.704 | 0.363 | 23.4 | 0.729 | > 28.6 | 0.322 | 1.14 | 0.518 | > 36.6 | 0.41 |  | 0.243 | 0.753 | 0.435 | 15.3 | 0.535 | 17.4 | 0.438 | 15.4
c1ccc(-c2nn3c(c2-c2ccnc4cc(OCCN5CCOCC5)ccc24)CCC3)nc1 | > 100 | > 100 | > 100 | > 100 | > 100 | > 100 | 75.2 | > 100 | 50.4 | > 100 | 98.8 | > 100 | 53.7 | > 100 | > 100 | > 100 | > 100 | > 100 | > 80.6 | > 100
CCOc1ccc2c(-c3ccnc(Nc4cc(OC)cc(C(F)(F)F)c4)n3)cnn2n1 | > 25 | > 25 | > 25 | > 25 | > 15.8 | > 25 | > 18.9 | > 25 | > 25 | > 25 | > 15.5 | > 25 | > 18.3 | > 25 | > 25 | > 25 | > 23 | > 25 | > 21.9 | > 25
